Experimental data taken from patent US11414398B2, “Selective organic cation transporters inhibitors for the treatment of depressive disorders” (priority 2017, dated 2022).
“Also recorded” adds a separate entry of the source.

Key:
[1] = tested on: autophagy and proteasome pathways in the brain; assay: Toxicity: cell death pathways in the brain, Western blots; settings: mouse, in vivo
Protocol: (§1) Corticosterone-induced depression. To induce a chronic depression-like state, individually housed mice were administered corticosterone ([…]; Sigma-Aldrich) dissolved in 0.45% (wt/vol) hydroxypropyl-b-cyclodextrin (Sigma-Aldrich) as in (Bacq et al., Mol. Psychiatry, 2012, 17, 926-939). […] The mice were tested successively for coat sate, sucrose consumption, elevated O-maze, object location test and social interaction, before antidepressant treatment, and after 10 days and 3 weeks of treatment. The experimental scheme is represented on FIG. 1A.
Cell death pathways in the brain—Western blots. […] Samples were homogenized by sonication in 2 vol of ice-cold phosphate-buffered saline containing 1% Triton X-100, protease inhibitors (Complete Protease Inhibitor Cocktail, Roche Diagnostics, Basel, Switzerland) and phosphatase inhibitors (Phosphatase Inhibitor Cocktail 3; Sigma-Aldrich). Protein concentrations were determined by Bradford's method. Proteins samples (15 μg) suspended in NuPage LDS sample buffer (Invitrogen, Carlsbad, Calif., USA) were separated by Bis-Tris sodium dodecyl sulfate polyacrylamide gel electrophoresis (10% gels) and transferred onto nitrocellulose membranes (Invitrogen). Transfer efficacy was controlled by Ponceau S staining. Unspecific binding sites were blocked in Tris-buffered saline containing 0.1% Tween-20 and 5% nonfat milk and membranes were immunoprobed with antibodies against β-actin ( 1/2500) and β-catenin ( 1/300) from Sigma-Aldrich or LC3B ( 1/5000) from Abcam. Membranes were incubated with infrared-labeled secondary antibodies (IRDye 700DX and IRDye 800CW; 1/5000; Rockland, Gilbertsvillle, Pa., USA). Immunoblotting was quantified with the Odyssey Infrared Imaging System and Application Software version 3.0 (LI-COR Biosciences, Lincoln, Nebr., USA).

[2] = Metabolic conversion in microsomal fraction; type: in vitro ADME; settings: 100 μM, rat liver microsomes 1 mg protein/mL, NADPH generating system, 37° C.
Protocol: Method. […] The reactions were stopped by adding one-half volume of CH3CN containing 8% CH3COOH and the proteins were removed by centrifugation at 13000 g. […] B=CH3CN/HCOOH (999:1)) at 200 μL/min. Mass spectra were obtained by electrospray ionization (ESI) in positive ionization mode detection under the following conditions: source parameters, […], 15; auxiliary gas, 5; spray voltage, 3.2 kV; capillary temperature, 275° C.; and m/z range for MS recorded generally between 150 and 900. For all products, the indicated parent ions corresponded to [M+H]^+.

[3] = tested on: corticosterone-induced depression model; assay: Social interaction test, corticosterone-induced depression; type: in vivo, mice; settings: 21 days of treatment; compared to corticosterone
Protocol: (§2) Corticosterone-induced depression. […] The experimental scheme is represented on FIG. 1A. Social interaction test. The social interaction test was performed in a white open-field (42×42 cm) containing an empty wire mesh cage (10×6.5 cm) located at an extremity of the field in a low luminosity environment (25 lux). Each test mouse was allowed to explore the openfield for two consecutive sessions of 2.5 min. During the second session, an unfamiliar mouse was introduced into the cage. Between the two sessions, the test mouse was placed back into its home cage for approximately one minute. The time spent by the test mouse in the interaction zone, defined as an 8-cm-wide region surrounding the mesh cage, was measured in both sessions by video tracking (Viewpoint, Lyon, France) (FIGS. 1G and 1I).

[4] = tested on: corticosterone-induced depression model; assay: Sucrose preference test, corticosterone-induced depression; type: in vivo, mice; settings: i.p. daily: I-1 0.1 mg/kg/day, fluoxetine 15 mg/kg/day or both
Protocol: Corticosterone-induced depression. […] The experimental scheme is represented on FIG. 1A. Sucrose preference test. Singled-house mice were first habituated for 48 h to drink water from two bottles.

[5] = tested on: corticosterone-induced depression model; assay: Coat state, corticosterone-induced depression; type: in vivo, mice; settings: both time points; i.p. daily: I-1 0.1 mg/kg/day, fluoxetine 15 mg/kg/day or both
Protocol: Corticosterone-induced depression. […] The experimental scheme is represented on FIG. 1A. Coat state. The coat state of each animal was assessed weekly as a measure of motivation toward self-care. It was evaluated as the sum of the score of different parts of the body, ranging between 0 for a well-groomed coat and 1 for an unkempt coat for head, neck, dorsal/ventral coat, tail and forepaws/hindpaws (FIG. 1B).

[6] = mouse, in vivo
Protocol: as §1
Blood parameter evaluation. Blood was collected in lithium heparin after the 3 weeks of treatment. Hemograms were performed with a Siemens ADVIAZ 120 apparatus. For biochemistry, blood was centrifuged at 2000 g for 10 min at +4° C. and supernatant was analyzed with a COBAS 6000 (Roche) apparatus.

[7] = Forced swim test, acute administration; type: in vivo
[8] = Effect on weight, corticosterone-induced depression; type: in vivo, mice; settings: weight measured daily; I-1 0.1 mg/kg/day, fluoxetine 15 mg/kg/day or both, i.p.
Protocol: Corticosterone-induced depression. […] The experimental scheme is represented on FIG. 1A. Effect on weight. The weight of tested mice was measured daily in the morning (FIG. 2D).

[9] = tested on: corticosterone-induced depression model; assay: Elevated O-maze test, corticosterone-induced depression; type: in vivo, mice; settings: after 21 days; i.p. daily: I-1 0.1 mg/kg/day, fluoxetine 15 mg/kg/day or both
Protocol: Corticosterone-induced depression. […] The experimental scheme is represented on FIG. 1A. Elevated O-maze test. The elevated O-maze consisted of an annular runway positioned 40 cm above the floor and divided into two opposing 90° closed sectors and two 90° open sectors. The mice were individually placed in the closed sector and their behavior recorded over a 5-min period. The time spent in each sector and the number of sector entries (a sector entry was defined as all four of the paws being placed in a sector) were determined by video tracking (Viewpoint, Lyon, France) (FIGS. 1D and 1E).

[10] = Acute administration: locomotor activity and anxiety level; type: in vivo
[11] = tested on: social defeat model; assay: Social defeat model, social interaction test; type: in vivo, mice; settings: after 3 weeks of treatment; fluoxetine 17 mg/kg, compound (I-1) 0.1 mg/kg as printed
Protocol: as §2, with “Social defeat model. For social defeat, 8-week-old C57Bl/6J mice were submitted to social defeat stress for 10 consecutive days as described (Berton et al., Science, 2006, 311(5762), 864-8).” for “Corticosterone-induced depression.”, “1H.” for “1A.”

[12] = tested on: corticosterone-induced depression model; assay: Open-field test, corticosterone-induced depression; type: in vivo, mice
Protocol: as §1
Open-field test. The open field consisted of a white Plexiglas field (100×100×30 cm) with the center brightly illuminated (500 lux). General locomotor activity in the center and periphery of the open field were scored for 9 min. The time and number of entries in the center zone (60×60 cm) were evaluated as an index of anxiety-related response (FIG. 2B).

[13] = compared to fluoxetine-treated and fluoxetine plus compound (I-1) treated groups

COc1ccc2c(c1)CC/C(=C/c1cc[n+](C(C)C)c3ccccc13)N2C(C)C [Compound I-1, (Z)-1-isopropyl-4-((1-isopropyl-6-methoxy-3,4-dihydroquinolin-2(1H)-ylidene)methyl)quinolin-1-ium Iodide]
LC3II/LC3I ratios [1]: comparable LC3II/LC3I ratios
autophagy and proteasome pathways in the brain [1]: does not alter autophagy and proteasome pathways in the brain
β-catenin levels [1]: comparable
metabolisation on incubation with microsomes [2]: led to the metabolisation
interaction time in social interaction test [3]: significant effects on interaction time
sucrose preference ([4]; 11 days of treatment): significantly increased sucrose preference at 11 days
sucrose preference ([4]; 21 days of treatment): significantly increased sucrose preference at 21 days
coat state [5]: improved coat state at both time points
ALP [6]: 53.3 ± 2.2 U/L
ALT [6]: 49.5 ± 4.2 U/L
AST [6]: 164.8 ± 6.2 U/L
Creatinine [6]: 0.43 ± 0.06 mg/dL
Hematies [6]: 8.96 ± 0.5 T/L
Leucocytes [6]: 2.89 ± 0.4 g/L
Platelets [6]: 254.1 ± 56.5
Total bilirubin [6]: 0.12 ± 0.01 mg/dL
Urea [6]: 61.7 ± 1.9 mg/dL
hepatotoxicity compared with fluoxetine [6]: less hepatotoxicity
immobility time in the forced swim test [7]: moderate but reproducible lowering (antidepressant-like) action
effect on weight [8]: no significant effect; also recorded: did not decrease weight
latency to enter the open zone of the elevated O-maze [9]: decreased the latency to enter this zone
time in the open zone of the elevated O-maze [9]: increased the time in the open zone
anxiety level [10]: no effect
locomotor activity [10]: no effect
reversal of social aversion (time in interaction zone with target) [11]: not by compound (I-1)
locomotor activity at the periphery of the open field ([12]; compared to corticosterone, I-1 0.1 mg/kg/day, fluoxetine 15 mg/kg/day or both, i.p.): significant effect; also recorded: restored normal locomotor activity
locomotor activity in the center of the open field [12, 13]: significant increase
time in the center of the open field [12, 13]: significant increase
